Data published in PubChem BioAssay AID588387 (NMMLSC, 2011).
Calls of active or inactive are those of the source.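 Rule for the calls: active = half-maximal binding-loss concentration at or below 10 µM, response change across doses of 30% or more, acceptable curve fit; inactive = the rest.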

Target: GTPase HRas (Homo sapiens) (UniProt P01112)
Test: inhibition of Bodipy-GTP binding to activated H-Ras – biochemical, multiplex bead flow cytometry, round 1, SAR follow-up (AID 588387)
Details: GST-H-Ras beads, Bodipy-FL-GTP binding; for % response (remaining GTP binding): at 100 µM (top of the series)

Chain of GTPase HRas (Homo sapiens) (P01112 whole entry, looked up): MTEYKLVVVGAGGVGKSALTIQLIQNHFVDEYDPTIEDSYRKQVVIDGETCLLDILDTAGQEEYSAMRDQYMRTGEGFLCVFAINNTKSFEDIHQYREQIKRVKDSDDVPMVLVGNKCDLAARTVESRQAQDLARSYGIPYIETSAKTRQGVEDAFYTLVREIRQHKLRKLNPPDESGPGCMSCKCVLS

Compound	% response (remaining GTP binding)	EC50 [nM]
CCOC(=O)c1c(NC(=O)Nc2ccc(F)cc2)sc2c1CCN(C)C2	inactive	–
CC1(C)Cc2c(sc(NC(=S)NC(=O)c3ccccc3Br)c2C(=O)O)CO1	–	45
CCOC(=O)c1c(NC(=O)Nc2ccc(C)cc2)sc2c1CCN(C)C2	inactive	–
CCOC(=O)c1c(NC(=S)Nc2ccccc2)sc2c1CC(C)(C)OC2	inactive	–
Cc1ccc(NC(=O)Nc2sc3c(c2C(=O)O)CCN(C)C3)cc1	inactive	–
COC(=O)c1c(N)sc2c1CC(C)(C)OC2	inactive	–
CC1(C)Cc2c(sc(NC(=S)NC(=O)c3ccc(Br)cc3)c2C(=O)O)CO1	–	260
COC(=O)c1c(NC(=S)NC(=O)c2ccccc2)sc2c1CC(C)(C)OC2	inactive	–
CCOC(=O)c1c(NC(=S)NC(=O)c2ccccc2)sc2ccccc12	inactive	–
CCOC(=O)c1c(N)sc2ccccc12	inactive	–
CCOC(=O)c1c(NC(=O)NC(C)(C)C)sc2c1CCN(C)C2	inactive	–
O=C(NC(=S)Nc1sc2c(c1C(=O)O)CCOC2)c1ccccc1	–	32
CC1(C)Cc2c(sc(NC(=S)NC(=O)c3ccccc3F)c2C(=O)O)CO1	–	51
CC1(C)Cc2c(sc(NC(=O)Cc3ccccc3)c2C(=O)O)CO1	inactive	–
CC1(C)Cc2c(sc(NC(=S)NC(=O)c3cccc(Br)c3)c2C(=O)O)CO1	inactive	–
CC1(C)Cc2c(sc(NC(=S)Nc3ccccc3)c2C(=O)O)CO1	inactive	–
CC1(C)Cc2c(sc(NC(=O)NC(=O)c3ccccc3)c2C(=O)O)CO1	–	151
COc1cccc(C(=O)NC(=S)Nc2sc3c(c2C(=O)O)CC(C)(C)OC3)c1	–	33
CC1(C)CCc2sc(NC(=S)NC(=O)c3ccccc3)c(C(=O)O)c2C1	–	76
CC1(C)Cc2c(sc(NC(=S)NC(=O)c3cccc(F)c3)c2C(=O)O)CO1	–	278
Cc1ccc(Nc2nc3sc4c(c3c(=O)o2)CCN(C)C4)cc1	inactive	–
CC1(C)Cc2c(sc(NC(=S)NC(=O)c3ccccc3)c2C(=O)O)CO1	–	82
CC1Cc2c(sc(NC(=S)NC(=O)c3ccccc3)c2C(=O)O)CO1 (configuration not stated)	–	47
CC(C)(C)OC(=O)c1c(NC(=S)NC(=O)c2ccccc2)sc2c1CCOC2	inactive	–
CN1CCc2c(sc(NC(=O)Nc3ccc(F)cc3)c2C(=O)O)C1	inactive	–
CN1CCc2c(sc3nc(Nc4ccc(F)cc4)oc(=O)c23)C1	inactive	–
COc1ccc(C(=O)NC(=S)Nc2sc3c(c2C(=O)O)CC(C)(C)OC3)cc1	–	145
